Source: patent US11307205B2, “Non-radioactive cytotoxicity assays” (University of Southern California, priority 2016, dated 2022)

Key:
[1] = tested on: 293FT cells; experiment: Matador assay, Digitonin-induced death of transiently transfected 293FT cells; format: cell-based
Method: The 293FT cells were transfected in a 24-well plate with various expression plasmids (500 ng/well) using calcium phosphate. Approximately, 18 hours post-transfection, the cells were either left untreated or treated with 30 μg/ml Digitonin to induce cell death, followed by the detection of luminescence as described under luciferase assays.
293FT cells were transfected with pLenti-CBGRluc construct in a […]. 72 hours post-transfection, cells were trypsinized and plated in 6-well plates. For induction of cell death, cells in some wells were treated with Digitonin (50 μg/mL final concentration). CBGRluc activity was determined by adding assay buffer (1 mM D-Luciferin, 25 mM glycylclycine, 15 mM potassium phosphate, 15 mM MgSO4, 4 mM EGTA, 2 mM ATP, and 1 mM DTT) in a well mode. The assay buffer with substrate was added at 1:1 (v/v) ratio.
The MLuc7 cDNA also carried M43L and M110L substitutions. […] The mammalian expression vectors encoding the non-secretory forms of the above luciferase cDNAs were transiently transfected into 293FT cells by calcium phosphate co-precipitation method. […] 6 wells were treated with Digitonin and 6 wells were left untreated. Luciferase activity was measured by addition of coelentrazine containing assay buffer directly to each well.
The indicated luciferase constructs in either retroviral or lentiviral vectors were transiently transfected into 293FT cells by calcium phosphate co-precipitation method. Approximately 18 hours post-transfection, cells were treated with Digitonin for 90 minutes or left untreated (control). […] Essentially a similar procedure was used with a construct encoding Lucia-Luc.
293FT cells were transiently transfected with the above construct or left untransfected. Approximately 18 hours post-transfection, cells were treated for 90 min with Digitonin (final concentration 30 μg/ml) or left untreated. After the 90 minute incubation, 200 μl supernatant was collected from each well in a 1.5 ml tubes. The tubes were spun down at 1500 RPM for 5 minutes.
We next examined if the Matador cytotoxicity assay developed by us is limited to only luciferase proteins or can be adapted to any other protein that is not endogenously expressed by the target cells. For this purpose, we transiently transfected 293FT cells by calcium phosphate co-precipitation method with an expression plasmid encoding enhanced green fluorescent protein (GFP) or HA-epitope tagged-mCherry. Approximately 24 post-transfection, the transfected cells were either left untreated or treated with Digitonin to induce cell death. The cells were collected in tubes and centrifuged at 2,000 rpm for 5 min. Cell supernatant was collected in a new set of tubes and cell pellet were washed with cold phosphate-buffered saline twice and lysed in lysis buffer containing 20 mM Tris-HCl, pH 8.0, 500 mM NaCl, 0.25% Triton X-100, 1 mM EDTA, 10 mM β-glycophosphate, 10 mMNaF, 1 mM DTT, 1× protease inhibitor mixture (Roche Molecular Biochemicals) at 4° C. for 30 min. After incubation, the mixture was pippetted five or six times to disperse the cells followed by centrifugation at 14,000 rpm at 4° C. for 10 min. The cell lysates were collected as whole cell extracts, and protein concentration was determined by using Bio-Rad protein assay reagent. 30 μl of cell supernatant or 30 μg of whole cell extracts were heated in the presence of SDS-PAGE sample buffer and loaded on 10% SDS-PAGE gel followed by transferring to nitrocellulose membranes. These membranes were incubated with primary antibodies against specified proteins in Tris-buffered-saline with Tween 20 followed by incubation with secondary antibody (IRDye 800CW conjugates of goat anti-rabbit IgG; Li-Cor) and development with Odyssey Infrared Imaging System CLx (Li-Cor Biosciences). The secondary antibody was used at a 1:10,000 dilution.

[2] = tested on: RAJI cells; experiment: Matador assay, Digitonin-induced death of RAJI cells expressing luciferase reporters; format: cell-based
Method: A similar experiment was conducted with K562, HEL-91-1-17 and RAJI cells stably expressing NLuc from pLENTI-NLuc-AcV5-Blasticidin-Pa08 vector (SEQ ID NO: 92). Cells plated in 30 μl of medium per well were either treated with 30 μl of PBS or 30 μl of PBS containing Digitonin (final concentration 30 μg/ml) for 1 hour at 37° C., in a 5% CO2 incubator. For measurement of NLuc activity, 0.5×CTZ assay buffer was added by automated injector directly to each well of the 384-well white plate containing cells in 60 μl of volume (30 μl of RPMI-10% FBS+30 μl of Digitonin) without prior cell lysis and plates were read for luminescence using BioTek synergy H4 plate reader in well mode.
Briefly, 20000 cells in 20 μl media were plated in each well of a 384 well plate followed by addition of 20 μl of Digitonin (final concentration 30 μg/ml) or media alone (20 μl) and incubated for 90 minutes.

For C[C@@H]1CC[C@@]2(OC1)O[C@H]1[C@@H](O)[C@H]3[C@@H]4CC[C@H]5C[C@@H](O[C@@H]6O[C@H](CO)[C@H](O[C@@H]7O[C@H](CO)[C@@H](O)[C@H](O[C@@H]8OC[C@@H](O)[C@H](O)[C@H]8O)[C@H]7O[C@@H]7O[C@H](CO)[C@H](O)[C@H](O[C@@H]8O[C@H](CO)[C@@H](O)[C@H](O)[C@H]8O)[C@H]7O)[C@H](O)[C@H]6O)[C@H](O)C[C@]5(C)[C@H]4CC[C@]3(C)[C@H]1[C@@H]2C [Digitonin], the luciferase activity ([1]; FfLuc construct, Digitonin 30 μg/ml, 90 min, supernatant) was “increase in luciferase activity”, the “fluorescence in cell supernatant” value ([1]; GFP and mCherry-HA transfected, Digitonin) was “significant increase in fluorescence” and the “GFP release in the supernatant fraction (Western blotting)” value ([1]; GFP transfected, Digitonin) was “increase in GFP release in the supernatant fraction”. The “mCherry release in the supernatant fraction (Western blotting)” value ([1]; HA-mCherry transfected, Digitonin) was “increase in mCherry release in the supernatant fraction”, the LucPPe luciferase activity ([1]; LucPPe-146-1H2 transient transfection, Digitonin) was “increase in LucPPe luciferase activity” and the Luc activity ([1]; MYR-GGS-GLuc construct, Digitonin 30 μg/ml, 90 min, supernatant) was “increase in Luc activity”. The “increase in alkaline phosphatase activity in the cell supernatants” value ([1]; constructs encoding human embryonal alkaline phosphatase lacking the secretory signal, Digitonin 90 min) was “greater than 3 fold”, the alkaline phosphatase activity ([1]; empty vector or plasmid encoding the secretory form of human embryonal alkaline phosphatase, Digitonin 90 min) was “little or no increase” and the CBGRluc activity ([1]; pLenti-CBGRluc transfected, Digitonin 50 μg/mL) was “increase in CBGRluc activity”. The “luciferase activity in the cell-free supernatants” value ([1]; transfected with GLuc, NLuc, MLuc7, TLuc16, Paluc1, Htluc1, Loluc, RLuc, Lucia-Luc, Digitonin 90 minutes) was “increase in luciferase activity”, the luciferase activity ([1]; transfected with HtLuc, LoLuc, MLuc7, Digitonin) was “increase in luciferase activity” and the TLuc activity ([2]; RAJI cells expressing TurboLuc16, Digitonin 90 min) was “increase in TLuc activity”. For the same compound, the GLuc luciferase activity ([2]; RAJI cells stably expressing GLuc from MSCVhygro-GLuc-HA-G02, Digitonin) was “Essentially similar results”, the NLuc activity ([2]; RAJI cells stably expressing NLuc, Digitonin 30 μg/ml, 1 hour) was “increase in NLuc activity” and the “FfLuc and GLuc activities” value ([2]; Raji cells expressing both GLuc and FfLuc, Digitonin 30 μg/ml, 90 minutes) was “increase in both FfLuc and GLuc activities”.
